According to US9302999B2, “Substituted triazoles as herbicides” (E. I. DU PONT DE NEMOURS AND COMPANY, priority 2012, dated 2016):

What was measured:
Assay type in all cases: in vivo
soybean (Glycine max) [1] = assay: Test E pre-/postemergence: soybean; conditions: scale 0 to 100
Method in brief: (§1)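 Preemergence: seeds sown in silt loam soil and treated with test chemicals in non-phytotoxic solvent with surfactant. Postemergence: plants at 2 to 18 cm (1- to 4-leaf stage) in peat/vermiculite medium were sprayed with the same formulations. After 14 to 21 days in greenhouse, injury was rated visually against controls, 0 (no effect) to 100 (complete control).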

[2] = system: barnyardgrass (Echinochloa crus-galli); assay: Test E pre-/postemergence: barnyardgrass; conditions: scale 0 to 100
Text: (§2) Seeds of plant species selected from corn (Zea mays), soybean (Glycine max), velvetleaf (Abutilon theophrasti), lambsquarters (Chenopodium album), poinsettia, wild (wild poinsettia, Euphorbia heterophylla), pigweed, palmer (palmer pigweed, Amaranthus palmeri), waterhemp (common waterhemp, Amaranthus rudis), smartweed (ladysthumb smartweed, Polygonum persicaria), surinam grass (Brachiaria decumbens), crabgrass, large (large crabgrass, Digitaria sanguinalis), crabgrass, Brazil (Brazilian crabgrass, Digitaria horizontalis), panicum, fall (fall panicum, Panicum dichotomiflorum), foxtail, giant (giant foxtail, Setaria faberii), foxtail, green (green foxtail, Setaria viridis), goosegrass (Eleusine indica), johnsongrass (Sorghum halepense), ragweed (common ragweed, Ambrosia elation), barnyardgrass (Echinochloa crus-galli), sandbur (southern sandbur, Cenchrus echinatus), arrowleaf sida (Sida rhombifolia), ryegrass, Italian (Italian ryegrass, Lolium multiflorum), dayflower, (VA) (Virginia dayflower, Commelina virginica), field bindweed (Convolvulus arvensis), cocklebur (common cocklebur, Xanthium strumarium), morningglory (Ipomoea coccinea), nightshade (eastern black nightshade, Solanum ptycanthum), kochia (Kochia scoparia), nutsedge, yellow (yellow nutsedge, Cyperus esculentus) and beggarticks (hairy beggarticks, Bidens pilosa) were planted into a silt loam soil and treated preemergence with test chemicals formulated in a non-phytotoxic solvent mixture which included a surfactant. At the same time, plants selected from these crop and weed species were planted in pots containing a growing medium comprising spaghnum peat moss, vermiculite, wetting agent and starter nutrients and treated with postemergence applications of some of the test chemicals formulated in the same manner. Plants ranged in height from 2 to 18 cm for postemergence treatments (1- to 4-leaf stage).
(§3) Treated plants and controls were maintained in a greenhouse for 14 to 21 days, after which time all species were compared to controls and visually evaluated. Plant response ratings, summarized in Table E, are based on a scale of 0 to 100 where 0 is no effect and 100 is complete control. A dash (-) response means no test result.

corn (Zea mays) = assay: Test E pre-/postemergence: corn; conditions: scale 0 to 100
Method in brief: as §1

[3] = system: crabgrass, Brazil (Brazilian crabgrass, Digitaria horizontalis); assay: Test E pre-/postemergence: crabgrass, Brazil; conditions: scale 0 to 100
Method in brief: as §1

[4] = system: surinam grass (Brachiaria decumbens); assay: Test E pre-/postemergence: surinam grass; conditions: Preemergence, scale 0 to 100
Text: as §2, §3

[5] = system: goosegrass (Eleusine indica); assay: Test F pre-/postemergence: goosegrass; conditions: Preemergence
Text: (§4) Seeds of plant species selected from corn (Zea mays), soybean (Glycine max), velvetleaf (Abutilon theophrasti), lambsquarters (Chenopodium album), poinsettia, wild (wild poinsettia, Euphorbia heterophylla), pigweed, palmer (palmer pigweed, Amaranthus palmeri), waterhemp (common waterhemp, Amaranthus rudis), surinam grass (Brachiaria decumbens), crabgrass, Brazil (Brazilian crabgrass, Digitaria horizontalis), panicum, fall (fall panicum Panicum dichotomiflorum), crabgrass, large (large crabgrass, Digitaria sanguinalis), foxtail, giant (giant foxtail, Setaria faberii), foxtail, green (green foxtail Setaria viridis), goosegrass (Eleusine indica), ragweed (common ragweed, Ambrosia elatior), barnyardgrass (Echinochloa crus-galli), sandbur (southern sandbur, Cenchrus echinatus), arrowleaf sida (Sida rhombifolia), ryegrass, Italian (Italian ryegrass, Lolium multiflorum), dayflower, VA (Virginia (VA) dayflower, Commelina virginica), field bindweed (Convolvulus arvensis), cocklebur (common cocklebur, Xanthium strumarium), morningglory (Ipomoea coccinea), nightshade (eastern black nightshade, Solanum ptycanthum), kochia (Kochia scoparia), nutsedge, yellow (yellow nutsedge, Cyperus esculentus), johnsongrass (Sorghum halepense), smartweed (ladysthumb smartweed, Polygonum persicaria), and beggarticks (hairy beggarticks, Bidens pilosa), were planted into a silt loam soil and treated preemergence with test chemicals formulated in a non-phytotoxic solvent mixture which included a surfactant. At the same time, plants selected from these crop and weed species and also pigweed (Amaranthus retroflexus), waterhemp_RES1 (ALS/Triazine resistant common waterhemp, Amaranthus rudis) and waterhemp_RES2 (ALS/HPPD resistant common waterhemp, Amaranthus rudis) were planted in pots containing a planting medium comprising spaghnum peat moss, vermiculite, wetting agent and starter nutrients treated with postemergence applications of some of the test chemicals formulated in the same manner. Plants ranged in height from 2 to 18 cm for postemergence treatments (1- to 4-leaf stage).
as §3

[6] = system: beggarticks (hairy beggarticks, Bidens pilosa); assay: Test F pre-/postemergence: beggarticks; conditions: Preemergence
Method in brief: (§5)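 Visual response scores, 0 meaning no effect and 100 complete control, were assigned against untreated controls 14 to 21 days after treatment. Test chemicals in a surfactant-containing non-phytotoxic solvent were applied preemergence to seeded silt loam soil or postemergence to 2–18 cm plants in peat-based medium.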

soybean (Glycine max) [7] = assay: Test F pre-/postemergence: soybean; conditions: Preemergence
Method in brief: as §5

[8] = system: waterhemp (common waterhemp, Amaranthus rudis); assay: Test F pre-/postemergence: waterhemp; conditions: Preemergence
Method in brief: as §5

[9] = system: surinam grass (Brachiaria decumbens); assay: Test F pre-/postemergence: surinam grass; conditions: Preemergence
Text: as §4, §3

[10] = 16 g ai/ha, scale 0 to 100 (0 no effect, 100 complete control)
[11] = 31 g ai/ha, scale 0 to 100 (0 no effect, 100 complete control)

In the case of Cc1nn(-c2ccc(C(F)(F)F)cc2)nc1Cc1ccnc(C(F)(F)F)c1 [Compound 47, 4-[[5-methyl-2-[4-(trifluoromethyl)phenyl]-2H-1,2,3-triazol-4-yl]methyl]-2-(trifluoromethyl)pyridine], the “Plant response rating: Soybean” value (soybean (Glycine max) [1]; Postemergence, 250 g ai/ha) is reported as 75, the “Plant response rating: Soybean” value (soybean (Glycine max) [1]; Postemergence, 16 g ai/ha) is reported as 50 and the “Plant response rating: Soybean” value (soybean (Glycine max) [1]; Postemergence, 31 g ai/ha) is reported as 50. The “Plant response rating: Soybean” value (soybean (Glycine max) [1]; Postemergence, 62 g ai/ha) was 60, the “Plant response rating: Soybean” value (soybean (Glycine max) [1]; Postemergence, 125 g ai/ha) was 60 and the “Plant response rating: Soybean” value (soybean (Glycine max) [1]; Preemergence, 16 g ai/ha) was 0. The “Plant response rating: Soybean” value (soybean (Glycine max) [1]; Preemergence, 31 g ai/ha) was 40, the “Plant response rating: Soybean” value (soybean (Glycine max) [1]; Preemergence, 62 g ai/ha) was 40 and the “Plant response rating: Soybean” value (soybean (Glycine max) [1]; Preemergence, 125 g ai/ha) was 40. For the same molecule, the “Plant response rating: Soybean” value (soybean (Glycine max) [1]; Preemergence, 250 g ai/ha) was 40, the “Plant response rating: Barnyardgrass” value ([2]; Postemergence, 250 g ai/ha) was 60 and the “Plant response rating: Barnyardgrass” value ([2]; Postemergence, 16 g ai/ha) was 30. For the same molecule, the “Plant response rating: Barnyardgrass” value ([2]; Postemergence, 31 g ai/ha) was 30, the “Plant response rating: Barnyardgrass” value ([2]; Postemergence, 62 g ai/ha) was 40 and the “Plant response rating: Barnyardgrass” value ([2]; Postemergence, 125 g ai/ha) was 45. For the same molecule, the “Plant response rating: Barnyardgrass” value ([2]; Preemergence, 16 g ai/ha) was 5, the “Plant response rating: Barnyardgrass” value ([2]; Preemergence, 31 g ai/ha) was 30 and the “Plant response rating: Barnyardgrass” value ([2]; Preemergence, 62 g ai/ha) was 85. For the same molecule, the “Plant response rating: Barnyardgrass” value ([2]; Preemergence, 125 g ai/ha) was 100, the “Plant response rating: Barnyardgrass” value ([2]; Preemergence, 250 g ai/ha) was 100 and the “Plant response rating: Corn” value (corn (Zea mays); Postemergence, 250 g ai/ha) was 20. For the same molecule, the “Plant response rating: Corn” value (corn (Zea mays); Postemergence, 16 g ai/ha) was 10, the “Plant response rating: Corn” value (corn (Zea mays); Postemergence, 31 g ai/ha) was 15 and the “Plant response rating: Corn” value (corn (Zea mays); Postemergence, 62 g ai/ha) was 20. For the same molecule, the “Plant response rating: Corn” value (corn (Zea mays); Postemergence, 125 g ai/ha) was 20, the “Plant response rating: Corn” value (corn (Zea mays); Preemergence, 16 g ai/ha) was 0 and the “Plant response rating: Corn” value (corn (Zea mays); Preemergence, 31 g ai/ha) was 15. The “Plant response rating: Corn” value (corn (Zea mays); Preemergence, 62 g ai/ha) was 20, the “Plant response rating: Corn” value (corn (Zea mays); Preemergence, 125 g ai/ha) was 20 and the “Plant response rating: Corn” value (corn (Zea mays); Preemergence, 250 g ai/ha) was 25. The “Plant response rating: Crabgrass, Brazil” value ([3]; Postemergence, 250 g ai/ha) was 50, the “Plant response rating: Crabgrass, Brazil” value ([3]; Postemergence, 16 g ai/ha) was 20 and the “Plant response rating: Crabgrass, Brazil” value ([3]; Postemergence, 31 g ai/ha) was 30. The “Plant response rating: Crabgrass, Brazil” value ([3]; Postemergence, 62 g ai/ha) was 40, the “Plant response rating: Crabgrass, Brazil” value ([3]; Postemergence, 125 g ai/ha) was 40 and the “Plant response rating: Crabgrass, Brazil” value ([3]; Preemergence, 16 g ai/ha) was 35. The “Plant response rating: Crabgrass, Brazil” value ([3]; Preemergence, 31 g ai/ha) was 80, the “Plant response rating: Crabgrass, Brazil” value ([3]; Preemergence, 62 g ai/ha) was 100 and the “Plant response rating: Crabgrass, Brazil” value ([3]; Preemergence, 125 g ai/ha) was 100. The “Plant response rating: Crabgrass, Brazil” value ([3]; Preemergence, 250 g ai/ha) was 100, the “Plant response rating: Surinam Grass” value ([4]; 16 g ai/ha) was 15 and the “Plant response rating: Surinam Grass” value ([4]; 31 g ai/ha) was 20. For the same molecule, the “Plant response rating: Surinam Grass” value ([4]; 62 g ai/ha) was 25, the “Plant response rating: Surinam Grass” value ([4]; 125 g ai/ha) was 40 and the “Plant response rating: Surinam Grass” value ([4]; 250 g ai/ha) was 65.
In the case of Fc1ccc(-n2nc(Cc3ccnc(C(F)(F)F)c3)c(OCC(F)(F)F)n2)cc1 [Compound 142], the “Plant response rating, Goosegrass” value [5, 10] is reported as 40, the “Plant response rating, Goosegrass” value [5, 11] is reported as 70 and the “Plant response rating, Goosegrass” value ([5]; 62 g ai/ha, scale 0 to 100) is reported as 100. For the same molecule, the “Plant response rating, Goosegrass” value ([5]; 125 g ai/ha, scale 0 to 100) was 100, the “Plant response rating, Beggarticks” value [6, 10] was 0 and the “Plant response rating, Beggarticks” value [6, 11] was 40. For the same molecule, the “Plant response rating, Beggarticks” value ([6]; 62 g ai/ha, scale 0 to 100) was 65, the “Plant response rating, Beggarticks” value ([6]; 125 g ai/ha, scale 0 to 100) was 75 and the “Plant response rating, Soybean” value (soybean (Glycine max) [7]; [10]) was 0. The “Plant response rating, Soybean” value (soybean (Glycine max) [7]; [11]) was 0, the “Plant response rating, Soybean” value (soybean (Glycine max) [7]; 125 g ai/ha, scale 0 to 100) was 25 and the “Plant response rating, Waterhemp” value [8, 10] was 98. The “Plant response rating, Waterhemp” value [8, 11] was 98, the “Plant response rating, Waterhemp” value ([8]; 125 g ai/ha, scale 0 to 100) was 100 and the “Plant response rating, Surinam Grass” value [9, 10] was 5. The “Plant response rating, Surinam Grass” value [9, 11] was 5 and the “Plant response rating, Surinam Grass” value ([9]; 125 g ai/ha, scale 0 to 100) was 60.
